Data set [1] addresses T1, Histone-lysine N-methyltransferase EZH2 (Homo sapiens, UniProt Q15910).
The next data set has as its system NCI-H1299. The experiment in a line: cells. It counts as functional, cell-based. As to conditions: Homo sapiens.
The subject of a further data set is NCI-H1975. The experiment in a line: cells. It counts as functional, cell-based. As to conditions: Homo sapiens.
Data set [2] has as its system PC-3. As to the kind of experiment: cells. It counts as functional, cell-based. As to conditions: Homo sapiens.
In the next data set the test system is A549. The experiment in a line: cells. It counts as functional, cell-based. Particulars: Homo sapiens.
The nature of another data set: in vivo. Particulars: rat.
Data set [3] concerns MDA-MB-231. The experiment in a line: cells. It counts as functional, cell-based. As to conditions: Homo sapiens, MDA-MB-231, 72 h.
The nature of data set [4]: cells. It counts as functional, cell-based. As to conditions: Homo sapiens, WSU-FSCCL, 48 h.
A further data set deals with BT-474. As to the kind of experiment: cells. Particulars: Homo sapiens, BT-474, 72 h. It counts as functional, cell-based.
Data set [5] deals with T2, Histone-lysine N-methyltransferase EZH1 (Homo sapiens, UniProt Q92800).
T2 sequence (Q92800 whole entry): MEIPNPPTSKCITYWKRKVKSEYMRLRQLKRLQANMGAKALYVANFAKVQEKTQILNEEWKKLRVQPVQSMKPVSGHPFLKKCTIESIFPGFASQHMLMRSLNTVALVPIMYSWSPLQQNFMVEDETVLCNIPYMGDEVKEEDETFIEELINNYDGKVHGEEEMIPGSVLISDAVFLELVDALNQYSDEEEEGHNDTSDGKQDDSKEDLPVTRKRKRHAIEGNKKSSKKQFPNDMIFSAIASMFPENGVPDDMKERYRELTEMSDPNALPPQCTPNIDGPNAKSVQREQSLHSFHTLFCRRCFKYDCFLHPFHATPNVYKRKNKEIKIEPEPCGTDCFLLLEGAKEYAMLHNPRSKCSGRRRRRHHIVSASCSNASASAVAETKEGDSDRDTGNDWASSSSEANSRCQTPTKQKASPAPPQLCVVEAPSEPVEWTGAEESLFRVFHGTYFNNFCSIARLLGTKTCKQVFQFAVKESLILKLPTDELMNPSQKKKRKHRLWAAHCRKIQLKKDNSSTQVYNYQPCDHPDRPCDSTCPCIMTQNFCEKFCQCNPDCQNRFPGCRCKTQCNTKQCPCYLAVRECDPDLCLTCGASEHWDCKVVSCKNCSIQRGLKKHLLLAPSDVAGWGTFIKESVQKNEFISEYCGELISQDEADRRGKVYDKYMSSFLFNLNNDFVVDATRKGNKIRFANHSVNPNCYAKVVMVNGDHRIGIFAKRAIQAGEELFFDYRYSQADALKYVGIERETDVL

In data set [6] the test system is SU-DHL-6. As to the kind of experiment: cells. It counts as functional, cell-based. As to conditions: Homo sapiens.
Data set [7] concerns Pfeiffer. As to the kind of experiment: cells. Particulars: Homo sapiens. It counts as functional, cell-based.
For data set [8], the system named is HepG2. It counts as functional, Homo sapiens. Particulars: time 24 hrs.
Data set [9] deals with HepG2. As to the kind of experiment: cells. It counts as functional, cell-based. Particulars: Homo sapiens, HepG2, 24 h.
Data set [10] concerns MCF7. The experiment in a line: cells. It counts as functional, cell-based. Particulars: Homo sapiens, MCF7, 24 h.
The test system of data set [11] is PC-3. The experiment in a line: cells. It counts as functional, cell-based. As to conditions: Homo sapiens, PC-3, 24 h.
The test system of data set [12] is MCF7. It counts as functional, Homo sapiens. Particulars: time 24 hrs.
Data set [13] deals with PC-3. It counts as functional, Homo sapiens. As to conditions: time 24 hrs.
Another data set has as its system HCT-15. As to the kind of experiment: cells. It counts as functional, cell-based. As to conditions: Homo sapiens, HCT-15, 96 h.
In data set [14] the test system is MDA-MB-231. As to the kind of experiment: cells. Particulars: Homo sapiens, MDA-MB-231, 96 h. It counts as functional, cell-based.
Data set [15] concerns the target T3, Protein cereblon/Histone-lysine N-methyltransferase EZH2 (Homo sapiens, UniProt Q15910+Q96SW2). It counts as cell-based, DOHH-2.
In data set [16] the target is T3, Protein cereblon/Histone-lysine N-methyltransferase EZH2. It counts as cell-based, OCILY7.
Data set [17] addresses T1, Histone-lysine N-methyltransferase EZH2. The source holds these as a separate data set.
Data set [18] has as its target T4, Histone-lysine N-methyltransferase EZH2 (Homo sapiens, UniProt Q15910, Y641F).
In data set [19] the target is T2, Histone-lysine N-methyltransferase EZH1. The source holds these as a separate data set.
In data set [20] the test system is SU-DHL-6. The experiment in a line: cells. It counts as functional, cell-based. As to conditions: Homo sapiens, SU-DHL-6, 96 h.
Data set [21] deals with Pfeiffer. The experiment in a line: cells. It counts as functional, cell-based. As to conditions: Homo sapiens, 96 h.
A further data set can be described thus: physchem. Particulars: buffer.
For data set [22], the target named is T4, Histone-lysine N-methyltransferase EZH2. This is another data set of the same source.
The target of data set [23] is T1, Histone-lysine N-methyltransferase EZH2. The source holds these as a separate data set.
The target is the same in data set [24]. This is another data set of the same source.
The conditions of data set [25]: mouse, in vivo.
Data set [26] deals with KARPAS-422. As to the kind of experiment: animal or person. It counts as functional, Homo sapiens. As to conditions: Mus musculus, route po.
The target in data set [27] is T1, Histone-lysine N-methyltransferase EZH2. The source holds these as a separate data set.
The subject of data set [28] is KARPAS-422. As to the kind of experiment: cells. It counts as functional. As to conditions: Homo sapiens, time 10-15 day.
Data set [29] concerns the target T2, Histone-lysine N-methyltransferase EZH1. This is another data set of the same source.
Data set [30] has as its system MCF7. The experiment in a line: cells. It counts as functional, cell-based. Particulars: Homo sapiens, MCF7, 96 h.
The next data set concerns ZR-75-1. As to the kind of experiment: cells. It counts as functional, cell-based. As to conditions: Homo sapiens, ZR-75-1, 96 h.
The nature of data set [31]: cells. As to conditions: Homo sapiens, MDA-MB-23.
A further data set has as its system MDA-MB-468. The experiment in a line: cells. As to conditions: Homo sapiens.
The subject of data set [32] is MCF7. The experiment in a line: cells. As to conditions: Homo sapiens.

Converted amounts (≈) assume the structure as drawn.

We go through 15 compounds from ChEMBL document CHEMBL5120864, “Targeting Enhancer of Zeste Homolog 2 for the Treatment of Hematological Malignancies and Solid Tumors: Candidate Structure-Activity Relationships Insights and Evolution Prospects” (J Med Chem, 2022).

As usually defined, the IC50 is the concentration that inhibits the measured activity by half. A lower IC50 goes with higher potency. A word on the half-life: it is how long it takes for the measured level to halve. A higher half-life goes with slow loss. The solubility is the dissolved amount per volume that the medium holds. The inhibition in vivo is the change of the read-out against control, counted positive when it falls. The low end stands for a weak effect, the high end for a strong effect. One may read the GI50 as the concentration giving 50% growth inhibition.

T4 sequence (Q15910 whole entry Y641F): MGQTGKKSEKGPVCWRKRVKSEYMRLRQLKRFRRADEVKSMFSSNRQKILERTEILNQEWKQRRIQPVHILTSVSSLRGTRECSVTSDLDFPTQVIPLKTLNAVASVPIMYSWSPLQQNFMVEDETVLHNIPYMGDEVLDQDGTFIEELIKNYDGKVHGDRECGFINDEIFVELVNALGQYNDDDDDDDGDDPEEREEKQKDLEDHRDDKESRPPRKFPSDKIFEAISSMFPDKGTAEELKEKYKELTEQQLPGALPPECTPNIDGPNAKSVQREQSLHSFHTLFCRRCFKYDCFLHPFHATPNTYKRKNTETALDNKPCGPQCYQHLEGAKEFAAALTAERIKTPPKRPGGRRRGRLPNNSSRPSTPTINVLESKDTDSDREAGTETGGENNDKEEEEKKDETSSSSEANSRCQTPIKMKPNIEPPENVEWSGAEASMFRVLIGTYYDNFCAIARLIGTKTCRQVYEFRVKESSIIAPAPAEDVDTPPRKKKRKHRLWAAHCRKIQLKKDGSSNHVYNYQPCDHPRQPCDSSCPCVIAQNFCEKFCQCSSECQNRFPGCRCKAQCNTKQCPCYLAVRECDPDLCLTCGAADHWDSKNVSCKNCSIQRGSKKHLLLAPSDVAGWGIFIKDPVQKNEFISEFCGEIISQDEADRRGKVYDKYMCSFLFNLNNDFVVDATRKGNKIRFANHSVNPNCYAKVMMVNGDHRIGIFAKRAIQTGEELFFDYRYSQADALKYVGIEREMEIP
T1 sequence (Q15910 whole entry): as the sequence (Q15910 whole entry Y641F) above, with F641Y counted along it
T3 sequence (Q15910 whole entry): as the sequence (Q15910 whole entry Y641F) above, with F641Y counted along it
T3 sequence (Q96SW2 whole entry): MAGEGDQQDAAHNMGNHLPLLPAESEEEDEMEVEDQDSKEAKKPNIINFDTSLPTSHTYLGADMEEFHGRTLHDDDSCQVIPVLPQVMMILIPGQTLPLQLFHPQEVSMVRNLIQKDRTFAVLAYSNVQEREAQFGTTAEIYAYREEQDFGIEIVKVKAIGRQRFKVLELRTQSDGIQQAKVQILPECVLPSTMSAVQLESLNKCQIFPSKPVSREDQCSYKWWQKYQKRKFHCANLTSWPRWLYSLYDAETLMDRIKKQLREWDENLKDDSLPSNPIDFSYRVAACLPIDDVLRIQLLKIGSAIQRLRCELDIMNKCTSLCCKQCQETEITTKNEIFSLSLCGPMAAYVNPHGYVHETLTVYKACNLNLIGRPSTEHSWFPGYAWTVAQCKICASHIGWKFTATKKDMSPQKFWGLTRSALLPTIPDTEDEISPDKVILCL

Turning to `Nc1nccc2c1ncn2[C@@H]1C=C(CO)[C@@H](O)[C@H]1O`, the IC50 worked out at 80 nM in data set [1]; 210 nM in the data set with NCI-H1299; 80 nM in the data set with NCI-H1975; 190 nM in the data set with PC-3 [2]; 240 nM in the data set with A549. Moreover, the half-life in the data set “in vivo” was 1.1 h.

Turning to `COc1cc2nc(N3CCN(C)CC3)nc(NC3CCN(Cc4ccccc4)CC3)c2cc1OC`, the results for the IC50 in the data set on MDA-MB-231 [3], in “cells [4]” and in the data set with BT-474 were 4300 nM, 3400 nM and 2100 nM, respectively.

In turn, `CCC(CC)n1ccc2c(C(=O)NCc3c(C)cc(C)[nH]c3=O)cc(C#N)cc21` displayed an IC50 in data set [5] of 13 nM.

For the compound `CCN(c1cc(-c2ccc(CN3CCN(C)CC3)cc2)cc(C(=O)NCc2c3c(c(C)[nH]c2=O)CCCC3)c1C)C1CCOCC1`, the IC50 was found to be 16000 nM with SU-DHL-6 [6] and 12.5 nM in the data set with Pfeiffer [7].

Regarding `COc1ccc(C2SCCC(=O)N2Nc2nc3ccccc3[nH]2)cc1` (centres undefined), the “inhibition (INH)” value amounted to 64% with HepG2 [8], 50.8% in the data set with MCF7 [12] and 36.7% in the data set with PC-3 [13]. In addition, the figures for the IC50 in the data set with HepG2 [9], in the data set on MCF7 [10] and in the data set on PC-3 [11] were 8950 nM, 16600 nM and 27000 nM, respectively.

As for `COc1cccc2nc(N3CCCN(C)CC3)cc(NC3CCN(C)CC3)c12`, the 50% inhibitory concentration (IC50) in the data set on HCT-15 was 7600 nM; in the data set with MDA-MB-231 [14], 2450 nM.

Turning to `CCN(c1cc(-c2ccc(CN3CCN(C(=O)CCCCCCCNc4cccc5c4C(=O)N(C4CCC(=O)NC4=O)C5=O)CC3)cc2)cc(C(=O)NCc2c(C)cc(C)[nH]c2=O)c1C)C1CCOCC1` (centres undefined), the IC50 in [15] came to 100 nM; in data set [16], 60 nM.

Regarding `CCN(c1cc(-c2ccc(CN3CCN(C)CC3)cc2)cc(C(=O)NCc2c3c(c(C)[nH]c2=O)CCCC3)c1C)C1CCCCC1`, the IC50 in data set [17] is 9.8 nM; in data set [18], 182 nM; in data set [19] it was 136 nM; in the data set with SU-DHL-6 [20], 2010 nM; in the data set on Pfeiffer [21], 1430 nM.

In the data set “physchem”, `CCN(c1cc(-c2ccccc2)cc(C(=O)NCc2c3c(c(C)[nH]c2=O)CCCC3)c1C)C1CCOCC1` showed a solubility of 185 µg/mL (≈ 361 µM).

Regarding `COc1cc(C)[nH]c(=O)c1CNC(=O)c1c(C)n(C(C)C2CCN(C)C(C(F)(F)F)C2)c2ccccc12` (centres undefined), the half-maximal inhibitory concentration (IC50) was less than 100 nM in data set [22], less than 400000 nM in data set [23] and less than 100 nM in [24]. In data set [25], this compound came in with a CL of 55 µL/min/mg.

Take `COC1CN([C@H]2CC[C@H]([C@@H](C)c3scc(C(=O)NCc4c(C)cc(C)[nH]c4=O)c3C)CC2)C1`: the half-inhibitory concentration (IC50) was 0.93 nM in [22] and 1.43 nM in [24]. The compound also came in with an inhibition in vivo at 50 mg/kg with KARPAS-422 [26] of 53%.

Compound `C=CC(=O)Nc1cc(-c2ccc(N3CCNCC3)nc2)cc(C(=O)NCc2c(CC)cc(C)[nH]c2=O)c1C` had a half-inhibitory concentration (IC50) in data set [27] of 47 nM.

The compound `CCN1CCN(c2ccc(-c3cc(C(=O)NCc4c(C)cc(C)[nH]c4=O)c(C)c4c3O[C@](C)(CN3CCOCC3)O4)cn2)CC1` registered a 50% growth inhibitory concentration (GI50) with KARPAS-422 [28] of 210 nM.

As for `CCN(c1cc(-c2ccc(N3CCN(C)CC3)cc2)cc(C(=O)NCc2c3c(c(C)[nH]c2=O)CCCC3)c1C)C1CCOCC1`, the half-maximal inhibitory concentration (IC50) in [18] is 15 nM; in [29] it was 81 nM; with MCF7 [30], 990 nM; in the data set on ZR-75-1, 89 nM.

For the compound `O=C(c1cc(Cc2n[nH]c(=O)c3ccccc23)ccc1F)N1CCN(C(=O)C2CC2)CC1` [OLAPARIB], the IC50 in “cells [31]” is 36900 nM; in the data set with MDA-MB-468 it was 35600 nM; in the data set with MCF7 [32], greater than 50000 nM.
